# Reference: patent US20150283137A1, “6-oxo-1,6-dihydro-pyridazine derivative for the use for the treatment of hepatocellular carcinoma (HCC)” (MERCK PATENT GMBH, priority 2012, published 2015)
# “Also recorded” adds a separate entry of the source.
# What was measured:
# [1] = tested on: human MHCC97H liver tumor cells; assay: Subcutaneous MHCC97H tumor model; type: in vivo, mice; settings: for anti-tumor activity (in words): established fast growing subcutaneous MHCC97H tumors; for T/C ratio: 5 days on and 2 days on
# Protocol: Method: Male BalB/c nude mice (6-8 week old) where subcutaneously injected with human MHCC97H liver tumor cells and were divided into treatment groups (ten animals in one group) after the tumors were established (ca. 500 mm^3). Respective groups were administered orally with the 3-(1-{3-[5-(1-methyl-piperidin-4-ylmethoxy)-pyrimidin-2-yl]-benzyl}-6-oxo-1,6-dihydro-pyridazin-3-yl)-benzonitrile hydrochloride hydrate at different doses (10, 30 and 100 mg/kg) for 5 days on and […] or daily with sorafenib (50 mg/kg).
# [2] = tested on: human primary HCC explants
# Protocol: Method: Male BalB/c nude mice (6-8 week old) where subcutaneously transplanted with a primary HCC tumor fragment. Animals were divided into treatment groups (12 animals in one group) after the tumors were established. Respective groups were administered orally with the 3-(1-{3-[5-(1-methyl-piperidin-4-ylmethoxy)-pyrimidin-2-yl]-benzyl}-6-oxo-1,6-dihydro-pyridazin-3-yl)-benzonitrile hydrochloride hydrate at 100 mg/kg for 5 out of 7 days.
# [3] = tested on: MHCC97H tumor fragments; assay: Orthotopic MHCC97H tumor model; settings: 100 mg/kg orally
# Protocol: Method: In male BalB/c nude mice (7-8 week old) MHCC97H tumor fragments (2-3 mm^3) where orthotopically implanted into the left lobe of the liver. After 1 week of intrahepatic implantation animals were divided into treatment groups (ten animals in one group). Respective groups were administered orally with 3-(1-{3-[5-(1-methyl-piperidin-4-ylmethoxy)-pyrimidin-2-yl]-benzyl}-6-oxo-1,6-dihydro-pyridazin-3-yl)-benzonitrile hydrochloride hydrate at 100 mg/kg/5 days on and 2 days off for 5 weeks. At the end of treatment, tumor size and tumor weight were measured, plasma AFP levels and lung metastases analyzed.
Compound,anti-tumor activity (in words) [1],"T/C value ([1]; sorafenib 50 mg/kg orally daily, end of treatment)","number of models with anti-tumor activity ([2]; out of 9 models, sorafenib 50 mg/kg/5 out of 7 days)","tumor growth delay (TGD, time to reach a tumor volume of 1000 mm^3) ([1]; 10 mg/kg orally)","T/C ratio ([1]; 10 mg/kg orally, end of treatment, tumors ca. 500 mm^3 at start)","tumor growth delay (TGD, time to reach a tumor volume of 1000 mm^3) ([1]; 30 mg/kg orally)","T/C ratio ([1]; 30 mg/kg orally, end of treatment)","tumor growth delay (TGD, time to reach a tumor volume of 1000 mm^3) ([1]; 100 mg/kg orally)","T/C ratio ([1]; 100 mg/kg orally, end of treatment)",tolerability ([3]; 5 days on and 2 days off for 5 weeks),"anti-tumor activity on primary tumor (in words) ([3]; 5 days on and 2 days off for 5 weeks, end of treatment at day 35, hydrochloride hydrate)",lung metastases ([3]; end of treatment),"AFP levels in plasma ([3]; end of treatment, hydrochloride hydrate)",body weight ([3]; followed throughout the study),tolerability (body weight) ([2]; all mice),anti-tumor activity compared with sorafenib monotherapy ([2]; models LIM801 and LIM612 (strong signs of c-Met signaling)),"further activity in primary explants (in words) ([2]; nine primary explants, besides CR and SD)","complete responses (CR) ([2]; nine subcutaneous established primary explants, 100 mg/kg 5 out of 7 days)","number of models with significantly inhibited growth ([2]; out of 9 models, 100 mg/kg/5 out of 7 days)"
"CNC(=O)c1cc(Oc2ccc(NC(=O)Nc3ccc(Cl)c(C(F)(F)F)c3)cc2)ccn1 [sorafenib, reference compound]",marginal anti tumor activity with no tumor regressions,27%,7,–,–,–,–,–,–,–,–,–,–,–,–,–,–,–,–
"CN1CCC(COc2cnc(-c3cccc(Cn4nc(-c5cccc(C#N)c5)ccc4=O)c3)nc2)CC1.Cl.O [3-(1-{3-[5-(1-methyl-piperidin-4-ylmethoxy)-pyrimidin-2-yl]-benzyl}-6-oxo-1,6-dihydro-pyridazin-3-yl)-benzonitrile hydrochloride hydrate]",completely inhibited growth and induced regressions,–,–,24 days,−57%,53 days,−93%,> 53 days,−93%,well tolerated,complete regression in all mice; also recorded: primary tumor regression (p<0.001),reduction lung metastases (p<0.01),no AFP was measurable; also recorded: significantly reduced (p<0.001),no body weight loss could be detected,well tolerated in all mice,better anti-tumor activity than sorafenib monotherapy,marginal activity in one additional model,1/9,4
